These results are taken from the NIST ThermoML archive (doi:10.1016/j.jct.2013.03.008).

± gives the expanded uncertainty stated by the source.

One may read the surface tension liquid-gas as the force per length acting along the surface.

The data set can be described thus: cn = amount concentration of the nth substance listed, in mol/dm3. As to conditions: 313 K, Ring tensiometer.

For the molecule `CCCCCCCCCCCC(=O)OCC[N+](C)(C)CCC[N+](C)(C)CCOC(=O)CCCCCCCCCCC.[Br-].[Br-]` + O, the surface tension liquid-gas (c1 = 0.000412) turned out to be 30.2 ± 0.5 mN/m.
Regarding `CCCCCCCCCCCCOC(=O)C[N+](C)(C)CCC[N+](C)(C)CC(=O)OCCCCCCCCCCCC.[Br-].[Br-]` + O, the surface tension liquid-gas (c1 = 0.000228) was 27.2 ± 0.4 mN/m.
As to `CCCCCCCCCCCCOC(=O)C[N+](C)(C)CC[N+](C)(C)CC(=O)OCCCCCCCCCCCC.[Br-].[Br-]` + O, the surface tension liquid-gas (c1 = 0.000168) was 26.4 ± 0.4 mN/m.
